Measured values published in patent US12617777B2, “GPR84 antagonists and uses thereof” (Liminal BioSciences Limited, priority 2021, dated 2026).

Target: T1, human GPR84 receptor (Homo sapiens, UniProt Q9NQS5)
T1 construct: host or cells: HEK293, transient transfection
Assay: Gαi biosensor BRET assay in HEK293 cells (antagonism of ZQ-16)
Format: cell-based
Conditions: for inhibition at 10 µM: HEK293, single concentration 10 μM (designated F); for IC50: HEK293 cells, antagonism of 200 nmol/L ZQ-16; for inhibition at 25 µM: HEK293, single concentration 25 μM (designated I); for inhibition at 2 µM: HEK293, single concentration 2 μM (designated A)
How it was run: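 HEK293 cells transiently expressing human GPR84, Gαi2-Rluc8, GFP10-Gγ2 and Gβ1, in Tyrode's buffer pH 7.5. Compounds preincubated 5 min at 37° C, then 200 nmol/L ZQ-16 for 5 min at room temperature; coelenterazine 400A 5 μmol/L. BRET2 acceptor/donor ratio, background- and vehicle-corrected net BRET.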

T1 sequence (Q9NQS5 whole entry): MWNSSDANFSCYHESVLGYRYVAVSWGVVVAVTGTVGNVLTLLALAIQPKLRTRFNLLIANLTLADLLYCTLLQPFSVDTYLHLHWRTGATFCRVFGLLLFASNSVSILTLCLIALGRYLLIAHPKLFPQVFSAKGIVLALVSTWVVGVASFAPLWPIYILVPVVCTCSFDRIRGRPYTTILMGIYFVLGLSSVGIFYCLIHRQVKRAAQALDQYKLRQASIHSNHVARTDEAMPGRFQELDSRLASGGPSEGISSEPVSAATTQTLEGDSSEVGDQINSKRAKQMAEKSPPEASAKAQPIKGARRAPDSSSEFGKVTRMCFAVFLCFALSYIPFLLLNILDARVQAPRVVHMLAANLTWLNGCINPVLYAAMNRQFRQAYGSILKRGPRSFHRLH

## Cc1cc(C(=O)n2ccc(N)n2)ccc1-c1cn(CC2CCCCO2)nn1 (stereo not drawn) [Compound I-438]
  inhibition at 10 µM: 25 to 50%

## COC(c1cn(CC2CCCCO2)nn1)c1cc(C#CC2CC2)ccc1C(F)(F)F (stereo not drawn) [Compound I-655]
  inhibition at 10 µM: 50 to 75%

## Cc1ccc(C#CC2CC2)cc1Cc1cn(CC2CCCCO2)nn1 (stereo not drawn) [Compound I-299]
  IC50: > 3 µM

## Cc1cc(C#CCNc2ccccc2)ccc1-c1cn(CCOc2cccnc2)nn1 [Compound I-136]
  inhibition at 10 µM: ≤ 25%

## COc1ccc(C)c(N(C)c2cn(CC3OCC(C)(C)CO3)nn2)c1 [Compound I-814]
  inhibition at 10 µM: ≤ 25%

## CC(=O)N(C)C(C)(C)COc1ccc(-c2cn(CC3CCCCO3)nn2)c(C)c1 (stereo not drawn) [Compound I-290]
  inhibition at 10 µM: 25 to 50%

## COC1CN(c2ccc(-c3cn(CC4CCCCO4)nn3)c(C)c2)C1 (stereo not drawn) [Compound I-507]
  inhibition at 10 µM: 25 to 50%

## COCC#Cc1cnc(-c2cn(CC3OCC(C)(C)CO3)nn2)c(OC(C)C)c1 [Compound I-837]
  inhibition at 10 µM: ≤ 25%

## Cc1cc(C#CCNC(=O)OCc2ccccc2)ccc1-c1cn(CC2CCCCO2)nn1 (stereo not drawn) [Compound I-608]
  inhibition at 10 µM: > 75%
  IC50: 0.3 to 1 µM

## C(#CC1CC1)c1ccc2c(c1)CCc1c-2nnn1CC1CCCCO1 (stereo not drawn) [Compound I-303, 7-(cyclopropylethynyl)-3-((tetrahydro-2H-pyran-2-yl)methyl)-4,5-dihydro-3H-naphtho[1,2-d][1,2,3]triazole]
  inhibition at 10 µM: ≤ 25%

## Cc1cc(N2CCN(Cc3ccncn3)CC2)ccc1-c1cn(CC2CCCCO2)nn1 (stereo not drawn) [Compound I-565]
  inhibition at 10 µM: 50 to 75%

## Cc1cc(C#CCNC(C)(C)C)ccc1-c1cn(CC2CCCCO2)nn1 (stereo not drawn) [Compound I-267]
  inhibition at 10 µM: 25 to 50%

## Cc1ccc(-c2ccc(-c3cn(C[C@H]4COc5ccccc5O4)nn3)cc2)cn1 [Compound I-26]
  inhibition at 25 µM: ≤ 25%

## Cc1cc(C#CC2COC2)ccc1-c1cn(CC2CCCCO2)nn1 (stereo not drawn) [Compound I-576]
  inhibition at 10 µM: 50 to 75%

## C(#CC1CC1)c1cccc(-c2nnn(CC3COCCO3)n2)c1 (stereo not drawn) [Compound I-6]
  inhibition at 25 µM: ≤ 25%

## CC(c1cncc(C#CC2CC2)c1)c1cn(CC2CCCCO2)nn1 (stereo not drawn) [Compound I-426]
  inhibition at 10 µM: 25 to 50%

## COCC#Cc1cnc(-c2cn(CC3OCC4(CC4)CO3)nn2)c(OC2CC2)c1 [Compound I-833]
  inhibition at 10 µM: ≤ 25%
  IC50: ≤ 0.3 µM

## Cc1c(-c2ccc(C#CCNc3ccccc3)cc2)nnn1CC1CCCCO1 (stereo not drawn) [Compound I-235]
  inhibition at 10 µM: 25 to 50%

## C(#CC1CC1)c1cnc(-c2cn(C[C@H]3CCCCO3)nn2)c(OC2CC2)c1 [Compound I-701]
  inhibition at 2 µM: > 75%
  IC50: ≤ 0.3 µM

## CC(C)c1cc(C#CCN2CC(C)(C)C2)cnc1-c1cn(CC2OCC(C)(C)CO2)nn1 [Compound I-727]
  inhibition at 2 µM: > 75%
  IC50: 0.3 to 1 µM

## Cc1cc(N2CCC(CO)CC2)ccc1-c1cn(CC2CCCCO2)nn1 (stereo not drawn) [Compound I-445]
  inhibition at 10 µM: 50 to 75%

## Cc1cc(N2CC(C)(C)C2)cnc1-c1cn(CC2CCCCO2)nn1 (stereo not drawn) [Compound I-380]
  inhibition at 10 µM: > 75%

## N#CCc1cc(C#CC2CC2)ccc1-c1cn(CC2CCCCO2)nn1 (stereo not drawn) [Compound I-217]
  inhibition at 10 µM: 25 to 50%

## Cc1cc(Cl)c(N2CC(C)(C)C2)cc1-c1cn(C[C@H]2CCCCO2)nn1 [Compound I-431]
  inhibition at 10 µM: ≤ 25%

## Cc1cc(N2CCC(O)C2)ccc1-c1cn(CC2CCCCO2)nn1 (stereo not drawn) [Compound I-436]
  inhibition at 10 µM: ≤ 25%

## COCC#Cc1cnc(-c2cn(CC3OCC(C)(C)CO3)cn2)c(OC2CC2)c1 [Compound I-848]
  inhibition at 10 µM: ≤ 25%

## CC(C)Oc1cc(C#CC2CC2)cnc1-c1cn(CC2OCC3(CCC3)O2)nn1 (stereo not drawn) [Compound I-797]
  inhibition at 10 µM: > 75%
  IC50: ≤ 0.3 µM

## COCC1CN(c2ccc(-c3cn(CC4OCC(C)(C)CO4)nn3)c(N(C)C)c2)C1 [Compound I-755]
  inhibition at 10 µM: > 75%

## Cc1cc(C#CCN2CCCN(C)CC2)ccc1-c1cn(CC2CCCCO2)nn1 (stereo not drawn) [Compound I-159]
  inhibition at 10 µM: ≤ 25%

## C(#CC1CC1)c1ccc2c(c1)CCc1nnn(CC3CCCCO3)c1-2 (stereo not drawn) [Compound I-305]
  inhibition at 10 µM: ≤ 25%

## Cc1cc(N2CC(C)(CN(C)c3ccccn3)C2)ccc1-c1cn(CC2CCCCO2)nn1 (stereo not drawn) [Compound I-675]
  inhibition at 10 µM: > 75%

## CCc1cc(N2CC(C)(CO)C2)cnc1-c1cn(CC2CC(C)(C)CO2)nn1 (stereo not drawn) [Compound I-500]
  inhibition at 10 µM: > 75%
  IC50: 1 to 3 µM

## c1ccc(COc2ccc3c(c2)CCc2cnn(CC4CCCCO4)c2-3)cc1 (stereo not drawn) [Compound I-331]
  inhibition at 10 µM: ≤ 25%

## Cc1ccc(C#CC2CC2)nc1-c1cn(Cc2ncccn2)nn1 [Compound I-481]
  inhibition at 2 µM: ≤ 25%

## CC1(C)CN(c2ccc(-c3cn(CC4CCCCO4)nn3)c(Cl)c2)C1 (stereo not drawn) [Compound I-254]
  inhibition at 10 µM: 25 to 50%

## Cc1cc(N2CCN(Cc3ccccn3)CC2)ccc1-c1cn(CC2OCC(C)(C)CO2)cn1 [Compound I-682]
  inhibition at 10 µM: > 75%
  IC50: 0.3 to 1 µM

## Cc1cc(C#CC2CC2)ccc1-c1cn(CC2CC(F)(F)CO2)nn1 (stereo not drawn) [Compound I-489]
  inhibition at 2 µM: ≤ 25%

## CC(c1ccnc(C#CC2CC2)c1)c1cn(CC2CCCCO2)nn1 (stereo not drawn) [Compound I-699]
  inhibition at 10 µM: ≤ 25%

## CC1(C)COC(Cn2cc(-c3ncc(N4CC(C)(CO)C4)cc3OC3CC3)nn2)OC1 [Compound I-703]
  inhibition at 10 µM: > 75%
  IC50: 0.3 to 1 µM

## Cc1cc(N2CCN(Cc3ccccn3)CC2)ccc1-c1cn(CC2OCC(C)(C)O2)nn1 (stereo not drawn) [Compound I-603]
  inhibition at 10 µM: 50 to 75%
  IC50: > 3 µM

## CC(=O)NCC#Cc1ccc(-c2cn(C[C@H]3CCCCO3)nn2)c(C)c1 [Compound I-193]
  inhibition at 10 µM: 25 to 50%

## Cc1cc(C#CC2CC2)ccc1-c1cn(CC2CCCO2)nn1 (stereo not drawn) [Compound I-60]
  IC50: > 3 µM

## Cc1cc(C#CCn2ccnn2)cnc1-c1cn(CC2CCCCO2)nn1 (stereo not drawn) [Compound I-841, 5-(3-(1H-1,2,3-triazol-1-yl)prop-1-yn-1-yl)-3-methyl-2-(1-((tetrahydro-2H-pyran-2-yl)methyl)-1H-1,2,3-triazol-4-yl)pyridine]
  inhibition at 2 µM: > 75%

## CC(C)Oc1cc(N2CC(C)(C)C2)ccc1-c1cn(CC2CCCCO2)nn1 (stereo not drawn) [Compound I-271]
  inhibition at 2 µM: > 75%

## Cc1cc(N2CC(C)(CO)C2)c(F)cc1-c1cn(C[C@@H]2CCCCO2)nn1 [Compound I-805]
  inhibition at 2 µM: > 75%

## Cc1cc(C#CCn2cc(-c3ccc(N(C)C)cc3)nn2)cnc1-c1cn(CC2CCCCO2)nn1 (stereo not drawn) [Compound I-712]
  inhibition at 2 µM: > 75%
  IC50: ≤ 0.3 µM

## FC(F)(F)Cc1cc(C#CC2CC2)cnc1-c1cn(C[C@H]2CCCCO2)nn1 [Compound I-822]
  inhibition at 2 µM: > 75%
  IC50: ≤ 0.3 µM

## CN(C)c1cc(N2CC(C)(C)C2)ccc1-c1cn(CC2CCCCO2)nn1 (stereo not drawn) [Compound I-202]
  inhibition at 10 µM: > 75%
  IC50: 1 to 3 µM

## CCc1cc(C#CCN(C)C)ccc1-c1cn(CC2OCC(C)(C)CO2)nn1 [Compound I-852]
  inhibition at 2 µM: > 75%

## Cc1cc(N2CCC3(CC2)CN(Cc2ccccn2)C3)ccc1-c1cn(CC2CCCCO2)nn1 (stereo not drawn) [Compound I-521]
  inhibition at 10 µM: ≤ 25%

## Cc1ccc(Cl)cc1N(C)c1cn(CC2OCC3(CC3)CO2)nn1 [Compound I-844]
  inhibition at 10 µM: 50 to 75%

## Cc1c(-c2ccc(C#CCO)cc2)nnn1CC1CCCCO1 (stereo not drawn) [Compound I-243]
  inhibition at 10 µM: 25 to 50%

## CC(C)c1cc(C#CC2CC2)ccc1-c1cn(CC2CCOCC2)nn1 [Compound I-212]
  inhibition at 10 µM: ≤ 25%

## Cc1cc(N2CCN(Cc3ncco3)CC2)ccc1-c1cn(CC2CCCCO2)nn1 (stereo not drawn) [Compound I-579]
  inhibition at 10 µM: > 75%

## Cc1cc(N2CCN(Cc3ccccn3)CC2)ccc1-c1cn(CC2CCCCO2)nn1 (stereo not drawn) [Compound I-237]
  inhibition at 10 µM: > 75%
  IC50: 1 to 3 µM

## C(#CC1CC1)c1cccc(Cc2cn(CC3CCCCO3)nn2)c1 (stereo not drawn) [Compound I-301]
  inhibition at 10 µM: 50 to 75%

## COC(c1cn(CC2OCC(F)(F)CO2)nn1)c1cc(C#CC2CC2)c(F)cc1C (stereo not drawn) [Compound I-723]
  inhibition at 10 µM: > 75%

## Cc1cc(C#CC2CC2)ccc1-c1cn(CC2CN(C)C(=O)O2)nn1 (stereo not drawn) [Compound I-493]
  inhibition at 10 µM: ≤ 25%

## Cc1cc(N2CC3(CCN(C)C3)C2)ccc1-c1cn(CC2CCCCO2)nn1 (stereo not drawn) [Compound I-168]
  inhibition at 10 µM: ≤ 25%

## Cc1ccc(C#CC2CC2)cc1-c1noc(CC2CCCCO2)n1 (stereo not drawn) [Compound I-625]
  inhibition at 10 µM: 50 to 75%

## CC1(C)COC(Cn2cc(-c3ncc(C#CC4CC4)cc3OC3CC3)nn2)OC1 [Compound I-702]
  inhibition at 2 µM: > 75%
  IC50: ≤ 0.3 µM

## Cc1cc(C#CC2CC2)ccc1-c1cnn(CC2CCCCO2)c1C (stereo not drawn) [Compound I-327]
  inhibition at 10 µM: ≤ 25%

## COC(Cn1cc(-c2ccc(C#CC3CC3)cc2C)nn1)c1ccccc1 (stereo not drawn) [Compound I-73]
  inhibition at 25 µM: ≤ 25%

## Cc1cc(N2CC(C)(CNc3ccccn3)C2)ccc1-c1cn(CC2OCC(C)(C)CO2)nn1 [Compound I-673]
  inhibition at 2 µM: > 75%
  IC50: ≤ 0.3 µM

## COC(=O)C1(C)CN(c2ccc(-c3cn(CC4CCCCO4)nn3)c(C)c2)C1 (stereo not drawn) [Compound I-409]
  inhibition at 10 µM: 25 to 50%

## C(#CC1CC1)c1cccc(-c2cnn(CC3CCCCO3)c2)c1 (stereo not drawn) [Compound I-320]
  inhibition at 25 µM: ≤ 25%

## Cc1cc(N2CC3(CCN(Cc4ccccc4)C3)C2)ccc1-c1cn(CC2CCCCO2)nn1 (stereo not drawn) [Compound I-169]
  inhibition at 10 µM: ≤ 25%

## CCc1cc(C#CCNc2ccccn2)cnc1-c1cn(C[C@H]2CCCCO2)nn1 [Compound I-658]
  inhibition at 10 µM: > 75%
  IC50: > 3 µM

## Cc1cc(N2CC3(CCCN3c3ccccn3)C2)ccc1-c1cn(CC2OCC(C)(C)CO2)nn1 [Compound I-689]
  inhibition at 10 µM: > 75%
  IC50: 1 to 3 µM

## CCc1cc(C#CCN2CC(C)(C)C2)cnc1-c1cn(CC2OCC(C)(C)CO2)nn1 [Compound I-666]
  inhibition at 2 µM: > 75%
  IC50: ≤ 0.3 µM

## Cc1c(-c2ccc(C#CC3CC3)cc2)nnn1CC1CCCO1 (stereo not drawn) [Compound I-115]
  inhibition at 10 µM: ≤ 25%

## Cc1ccc(-c2ccc(-c3ncn(CC4CCCCO4)c3C)cc2)cn1 (stereo not drawn) [Compound I-340]
  inhibition at 10 µM: 25 to 50%
